Converted amounts (≈) assume the structure as drawn. Counter-ions that a name gives are not always drawn.
What was measured:
isolated rat duodenum = assay: Spasmolytic activity of papaverinic type, barium chloride contracture; conditions: Tyrode 38°; for EC50: read-out: Spasmolytic activity Papaverinic type DE 50 (converted)
Experimental: a. To show activity of the papaverinic type, the contracturant used is barium chloride acting on the isolated rat duodenum.
The average activity of the substances studied has been effected by determining graphically their DE 30 and DE 50 these being expressed in μg for 20 ml of bath.

[1] = system: isolated ileum of the guinea-pig; assay: Spasmolytic activity of atropinic type, acetylcholine chloride contracture; conditions: Tyrode 33°; for EC50: Cavia porcellus, read-out: Spasmolytic activity Atropinic type DE 50 (converted)
Source text: b. To show activity of atropinic type the contracturant used is acetylcholine chloride acting on the isolated ileum of the guinea-pig. […]

Row | Compound | Spasmolytic activity Papaverinic type DE 30 (isolated rat duodenum) | EC50 (isolated rat duodenum) [µg/mL] | EC50 [1] [µg/mL] | Spasmolytic activity Atropinic type DE 30 [1]
1 | C=CCC(Cc1csc2ccccc12)C(=O)OCCN(CC)CC (stereo not drawn) [Compound 1] | 3.7 μg for 20 ml of bath | 0.125 (≈ 0.362 µM) |  | 
2 | C=CCC(Cc1csc2ccccc12)C(=O)OCCN1CCCC1 (stereo not drawn) [Compound 2] | 12.0 μg for 20 ml of bath | 1.15 (≈ 3.35 µM) |  | 
3 | C=CCC(Cc1csc2ccccc12)C(=O)OCCN1CCCCC1 (stereo not drawn) [Compound 3] | 18.0 μg for 20 ml of bath | 2 (≈ 5.59 µM) |  | 
4 | C=CCC(Cc1csc2ccccc12)C(=O)OCCCN1CCCC1 (stereo not drawn) [Compound 8] | 42.0 μg for 20 ml of bath | 4 (≈ 11.2 µM) | 4.5 (≈ 12.6 µM) | 55 μg/20 ml of bath
5 | C=CCC(Cc1csc2ccccc12)C(=O)OCCCN1CCCCC1 (stereo not drawn) [Compound 9] | 13.0 μg for 20 ml of bath | 1 (≈ 2.69 µM) |  | 
6 | C=CCC(Cc1csc2ccccc12)C(=O)OCCCN1CCCCCC1 (stereo not drawn) [Compound 10] | 7.2 μg for 20 ml of bath | 0.65 (≈ 1.69 µM) |  | 
7 | CN(C)CCOC(=O)C(Cc1csc2ccccc12)c1ccccc1 (stereo not drawn) [Compound 12] | 24.0 μg for 20 ml of bath | 2.5 (≈ 7.07 µM) | 5 (≈ 14.1 µM) | 50 μg/20 ml of bath
8 | CCN(CC)CCOC(=O)C(Cc1csc2ccccc12)c1ccccc1 (stereo not drawn) [Compound 13, N,N-diethylamino ethyl ester of α-phenyl-β-[(benzo(b)thienyl-3]propionic acid and its oxalate] | 13.0 μg for 20 ml of bath | 2.25 | 2.1 | 30 μg/20 ml of bath
9 | O=C(OCCN1CCCC1)C(Cc1csc2ccccc12)c1ccccc1 (stereo not drawn) [Compound 14] | 18.0 μg for 20 ml of bath | 1.75 (≈ 4.61 µM) | 7 (≈ 18.4 µM) | 90 μg/20 ml of bath
10 | O=C(OCCN1CCCCC1)C(Cc1csc2ccccc12)c1ccccc1 (stereo not drawn) [Compound 15] | 45.0 μg for 20 ml of bath | 3.5 (≈ 8.89 µM) | 2.25 (≈ 5.72 µM) | 26 μg/20 ml of bath
11 | O=C(OCCN1CCOCC1)C(Cc1csc2ccccc12)c1ccccc1 (stereo not drawn) [Compound 16] | 38.0 μg for 20 ml of bath | 5.5 (≈ 13.9 µM) | 22.5 (≈ 56.9 µM) | 225 μg/20 ml of bath
12 | CN(C)CCCOC(=O)C(Cc1csc2ccccc12)c1ccccc1 (stereo not drawn) [Compound 18] | 8.0 μg for 20 ml of bath | 1 (≈ 2.72 µM) | 1.75 (≈ 4.76 µM) | 22 μg/20 ml of bath
13 | CCN(CC)CCCOC(=O)C(Cc1csc2ccccc12)c1ccccc1 (stereo not drawn) [Compound 19] | 11.5 μg for 20 ml of bath | 1.25 (≈ 3.16 µM) |  | 
14 | O=C(OCCCN1CCCC1)C(Cc1csc2ccccc12)c1ccccc1 (stereo not drawn) [Compound 20] | 8.0 μg for 20 ml of bath | 0.95 (≈ 2.41 µM) | 2.75 (≈ 6.99 µM) | 25 μg/20 ml of bath
15 | O=C(OCCCN1CCCCC1)C(Cc1csc2ccccc12)c1ccccc1 (stereo not drawn) [Compound 21] | 8.0 μg for 20 ml of bath | 0.95 (≈ 2.33 µM) | 4 (≈ 9.81 µM) | 40 μg/20 ml of bath
16 | O=C(OCCCN1CCCCCC1)C(Cc1csc2ccccc12)c1ccccc1 (stereo not drawn) [Compound 22] | 7.0 μg for 20 ml of bath | 0.8 (≈ 1.9 µM) |  | 
17 | CC(CN1CCCCC1)OC(=O)C(Cc1csc2ccccc12)c1ccccc1 (stereo not drawn) [Compound 23] | 3.1 μg for 20 ml of bath | 0.35 (≈ 0.859 µM) | 7 (≈ 17.2 µM) | 50 μg/20 ml of bath
18 | CN(C)CCOC(=O)C(Cc1ccccc1)Cc1csc2ccccc12 (stereo not drawn) [Compound 24] | 10.0 μg for 20 ml of bath | 1.25 (≈ 3.4 µM) | 10 (≈ 27.2 µM) | 90 μg/20 ml of bath
19 | CCN(CC)CCOC(=O)C(Cc1ccccc1)Cc1csc2ccccc12 (stereo not drawn) [Compound 25] | 9.0 μg for 20 ml of bath | 0.9 (≈ 2.28 µM) | 6 (≈ 15.2 µM) | 60 μg/20 ml of bath
20 | O=C(OCCN1CCCC1)C(Cc1ccccc1)Cc1csc2ccccc12 (stereo not drawn) [Compound 26] | 5.5 μg for 20 ml of bath | 0.6 (≈ 1.52 µM) | 7 (≈ 17.8 µM) | 50 μg/20 ml of bath

Source: patent publication US3954780A, “Propionic acid derivatives” (Innothera, priority 1970, dated 1976)
